We go through 13 molecules from patent publication US20250179103A1, “6-OXODECAHYDROPYRROLO[1,2-A][1,5]DIAZOCINE AND 6-OXODECAHYDRO-4H-PYRROLO[2,1-D][1,5]THIAZOCINE DERIVATIVES AS STAT3 AND STAT6 MODULATORS FOR THE TREATMENT OF CANCER AND INFLAMMATORY CONDITIONS” (Recludix Pharma, Inc., priority 2022, published 2025).

The target in assay [1] is T1, Recombinant STAT6 protein (STAT6(W123-T658)) (Homo sapiens, UniProt P42226).
T1 construct: Recombinant STAT6 protein (STAT6(W123-T658))
T1 sequence (P42226 123-658): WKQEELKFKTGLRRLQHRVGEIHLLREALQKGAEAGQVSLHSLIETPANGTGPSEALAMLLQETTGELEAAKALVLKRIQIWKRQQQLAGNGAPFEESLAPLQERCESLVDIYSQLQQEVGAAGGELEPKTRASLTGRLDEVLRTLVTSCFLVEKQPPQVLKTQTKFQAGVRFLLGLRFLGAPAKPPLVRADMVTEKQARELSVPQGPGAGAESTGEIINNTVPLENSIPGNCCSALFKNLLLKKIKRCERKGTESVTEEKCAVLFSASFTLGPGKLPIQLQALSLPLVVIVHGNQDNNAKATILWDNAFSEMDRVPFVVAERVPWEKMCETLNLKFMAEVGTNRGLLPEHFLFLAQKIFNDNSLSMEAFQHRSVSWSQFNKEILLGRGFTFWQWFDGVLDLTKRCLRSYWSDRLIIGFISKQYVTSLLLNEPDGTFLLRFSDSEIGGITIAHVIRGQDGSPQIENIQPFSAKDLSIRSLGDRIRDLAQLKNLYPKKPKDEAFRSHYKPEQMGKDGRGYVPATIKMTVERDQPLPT
The assay can be described thus: STAT6 Fluorescence Polarization (FP) Assay. To be noted: STAT6(W123-T658) 250 nM, probe 5-FAM-ApYKPFQDLI-NH2 2 nM, 45-minute incubation. The class given is binding. In a few lines: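 Displacement of a fluorescent phosphotyrosine peptide (5-FAM-ApYKPFQDLI-NH2, 2 nM) from STAT6(W123-T658) (250 nM), 1% DMSO, pH 7.4 HEPES buffer. After 45 min at room temperature, polarization (mP) was plotted versus log compound concentration and fitted by nonlinear regression to give IC50.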

Assay [2] has as its target T2, Recombinant STAT3 protein (STAT3(G127-I722)) (Homo sapiens, UniProt P40763).
T2 construct: Recombinant STAT3 protein (STAT3(G127-I722))
The assay can be described thus: STAT3 Fluorescence Polarization (FP) Assay. The class given is binding. Conditions: STAT3(G127-I722) 25 nM, probe 5-FAM-GpYLPQTV-NH2 2 nM, 45-minute incubation. In a few lines: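 Fluorescence polarization after a 45-min room-temperature incubation measured compound displacement of a 2 nM fluorescein-labelled phosphotyrosine peptide (5-FAM-GpYLPQTV-NH2) from 25 nM recombinant STAT3(G127-I722). Buffer was 10 mM HEPES pH 7.4 with 1% DMSO final. IC50s were fitted by nonlinear regression of mP against log concentration.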

T2 sequence (P40763 127-722): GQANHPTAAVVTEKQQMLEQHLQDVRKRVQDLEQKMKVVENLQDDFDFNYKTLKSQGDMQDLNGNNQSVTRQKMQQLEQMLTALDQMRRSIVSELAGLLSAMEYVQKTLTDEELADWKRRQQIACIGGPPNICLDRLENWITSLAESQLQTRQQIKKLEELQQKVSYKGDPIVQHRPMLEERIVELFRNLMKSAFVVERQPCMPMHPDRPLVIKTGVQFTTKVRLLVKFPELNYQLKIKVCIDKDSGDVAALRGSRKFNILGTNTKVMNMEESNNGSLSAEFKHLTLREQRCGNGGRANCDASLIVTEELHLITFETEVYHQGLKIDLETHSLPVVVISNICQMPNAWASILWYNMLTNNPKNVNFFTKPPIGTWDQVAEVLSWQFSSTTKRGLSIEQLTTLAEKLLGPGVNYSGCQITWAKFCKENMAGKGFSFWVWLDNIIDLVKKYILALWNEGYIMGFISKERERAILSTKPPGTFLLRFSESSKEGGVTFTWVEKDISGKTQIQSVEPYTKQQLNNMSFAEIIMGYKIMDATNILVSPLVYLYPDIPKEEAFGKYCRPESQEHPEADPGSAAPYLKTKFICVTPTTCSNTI

As for `CC(=O)N1CC[C@H]2CC[C@@H](C(=O)N(C)c3ccccc3)N2C(=O)[C@@H](NC(=O)c2ccc3ccc(C(F)(F)P(=O)(O)O)cc3c2)C1` [Compound 111, ((7-(((5S,8S,10aR)-3-acetyl-8-(methyl(phenyl)carbamoyl)-6-oxodecahydropyrrolo[1,2-a][1,5]diazocin-5-yl)carbamoyl)naphthalen-2-yl)difluoromethyl)phosphonic acid], the IC50 is 300 to 3000 nM in assay [1] and greater than 10000 nM in assay [2].
The corresponding values for `Cc1ccc2onc(C(=O)N3CC[C@H]4CC[C@@H](C(=O)N5CCOCC5)N4C(=O)[C@@H](NC(=O)c4ccc5c(C#N)cc(CP(=O)(O)O)cc5c4)C3)c2c1` [Compound 384, ((4-cyano-7-(((5S,8S, 10aR)-3-(5-methylbenzo[d]isoxazole-3-carbonyl)-8-(morpholine-4-carbonyl)-6-oxodecahydropyrrolo [1,2-a][1,5]diazocin-5-yl)carbamoyl)naphthalen-2-yl)methyl) phosphonic acid] are 300 to 3000 nM and greater than 10000 nM.
In the same order, the values of `CC(=O)N1CC[C@H]2CC[C@@H](C(=O)N3CCCC[C@H]3Cc3ccccc3)N2C(=O)[C@@H](NC(=O)c2cc3cc(C(F)(F)P(=O)(O)O)ccc3[nH]2)C1` [Compound 106, ((2-(((5S,8S,10aR)-3-acetyl-8-((S)-2-benzylpiperidine-1-carbonyl)-6-oxodecahydropyrrolo[1,2-a][1,5]diazocin-5-yl)carbamoyl)-1H-indol-5-yl)difluoromethyl)phosphonic acid] are 300 to 3000 nM and 1000 to 10000 nM.
Regarding `CCOc1ccc(N(C)C(=O)[C@@H]2CC[C@@H]3CCN(C(C)=O)C[C@H](NC(=O)c4cc5cc(C(F)(F)P(=O)(O)O)ccc5[nH]4)C(=O)N32)cc1` [Compound 101, ((2-(((5S,8S,10aR)-3-acetyl-8-((4-ethoxyphenyl)(methyl)carbamoyl)-6-oxodecahydropyrrolo[1,2-a][1,5]diazocin-5-yl)carbamoyl)-1H-indol-5-yl)difluoromethyl)phosphonic acid], the IC50 was in the range of 300 to 3000 nM in assay [1] and 1000 to 10000 nM in assay [2].
In the same order, the values of `Cc1ccc2onc(C(=O)N3CC[C@H]4CC[C@@H](C(=O)N5CCN(S(C)(=O)=O)CC5)N4C(=O)[C@@H](NC(=O)c4ccc5ccc(C(F)P(=O)(O)O)cc5c4)C3)c2c1` (stereo partly drawn) [Compound 368, (fluoro(7-(((5S,8S,10aR)-3-(5-methylbenzo[d]isoxazole-3-carbonyl)-8-(4-(methylsulfonyl)piperazine-1-carbonyl)-6-oxodecahydropyrrolo [1,2-a][1,5]diazocin-5-yl)carbamoyl)naphthalen-2-yl)methyl)phosphonic acid] are no more than 300 nM and greater than 10000 nM.
With `CN(CC(C)(C)C#N)C(=O)[C@@H]1CC[C@@H]2CCN(CC(F)F)C[C@H](NC(=O)c3cc4cc(C(F)(F)P(=O)(O)O)ccc4s3)C(=O)N21` [Compound 264, ((2-(((5S,8S,10aR)-8-((2-cyano-2-methylpropyl)(methyl)carbamoyl)-3-(2,2-difluoroethyl)-6-oxodecahydropyrrolo[1,2-a][1,5]diazocin-5-yl)carbamoyl)benzo[b]thiophen-5-yl)difluoromethyl)phosphonic acid], the IC50 in assay [1] is 300 to 3000 nM; in assay [2] it was 1000 to 10000 nM.
In the same order, the values of `CC(=O)N1CC[C@H]2CC[C@@H](C(=O)N(C)CC(C)(C)C#N)N2C(=O)[C@@H](NC(=O)c2cc3cc(C(F)(F)P(=O)(O)O)ccc3s2)C1` [Compound 92, ((2-(((5S,8S,10aR)-3-acetyl-8-((2-cyano-2-methylpropyl)(methyl)carbamoyl)-6-oxodecahydropyrrolo[1,2-a][1,5]diazocin-5-yl)carbamoyl)benzo[b]thiophen-5-yl)difluoromethyl)phosphonic acid] are 300 to 3000 nM and 1000 to 10000 nM.
The corresponding values for `Cc1ccc2onc(C(=O)N3CC[C@H]4CC[C@@H](C(=O)N5C[C@@H]6C[C@H]5CO6)N4C(=O)[C@@H](NC(=O)c4ccc5ccc(C(F)P(=O)(O)O)cc5c4)C3)c2c1` (stereo partly drawn) [Compound 372, ((7-(((5S,8S,10aR)-8-((1S,4S)-2-oxa-5-azabicyclo[2.2.1]heptane-5-carbonyl)-3-(5-methylbenzo[d]isoxazole-3-carbonyl)-6-oxodecahydropyrrolo [1,2-a][1,5]diazocin-5-yl)carbamoyl)naphthalen-2-yl)fluoromethyl)phosphonic acid] are no more than 300 nM and greater than 10000 nM.
The corresponding values for `CC(=O)N1CC[C@H]2CC[C@@H](C(=O)N(C)c3cccc(C#N)c3)N2C(=O)[C@@H](NC(=O)c2cc3cc(C(F)(F)P(=O)(O)O)ccc3[nH]2)C1` [Compound 167, ((2-(((5S,8S,10aR)-3-acetyl-8-((3-cyanophenyl)(methyl)carbamoyl)-6-oxodecahydropyrrolo[1,2-a][1,5]diazocin-5-yl)carbamoyl)-1H-indol-5-yl)difluoromethyl)phosphonic acid] are 300 to 3000 nM and 1000 to 10000 nM.
As for `COCCOc1ccc(N(C)C(=O)[C@@H]2CC[C@@H]3CCN(C(C)=O)C[C@H](NC(=O)c4cc5cc(C(F)(F)P(=O)(O)O)ccc5[nH]4)C(=O)N32)cc1` [Compound 137, ((2-(((5S,8S,10aR)-3-acetyl-8-((4-(2-methoxyethoxy)phenyl)(methyl)carbamoyl)-6-oxodecahydropyrrolo[1,2-a][1,5]diazocin-5-yl)carbamoyl)-1H-indol-5-yl)difluoromethyl)phosphonic acid], the IC50 in assay [1] lay in the range of 300 to 3000 nM; in assay [2] it was 1000 to 10000 nM.
On to `CC(=O)N1CC[C@H]2CC[C@@H](C(=O)Nc3ccn(-c4ccccc4)c(=O)c3)N2C(=O)[C@@H](NC(=O)c2cc3cc(C(F)(F)P(=O)(O)O)ccc3[nH]2)C1` [Compound 140, ((2-(((5S,8S,10aR)-3-acetyl-6-oxo-8-((2-oxo-1-phenyl-1,2-dihydropyridin-4-yl)carbamoyl)decahydropyrrolo[1,2-a][1,5]diazocin-5-yl)carbamoyl)-1H-indol-5-yl)difluoromethyl)phosphonic acid], for which the results for the IC50 in assay [1] and in assay [2] were 300 to 3000 nM and 100 to 1000 nM, respectively.
In the same order, the values of `CC(=O)N1CC[C@H]2CC[C@@H](C(=O)N3Cc4cnn(-c5ncccn5)c4C3)N2C(=O)[C@@H](NC(=O)c2cc3cc(C(F)(F)P(=O)(O)O)ccc3s2)C1` [Compound 87, ((2-(((5S,8S,10aR)-3-acetyl-6-oxo-8-(1-(pyrimidin-2-yl)-1,4,5,6-tetrahydropyrrolo[3,4-c]pyrazole-5-carbonyl)decahydropyrrolo[1,2-a][1,5]diazocin-5-yl)carbamoyl)benzo[b]thiophen-5-yl)difluoromethyl)phosphonic acid] are 300 to 3000 nM and 1000 to 10000 nM.
The corresponding values for `CC(=O)N1CC[C@H]2CC[C@@H](C(=O)N3C[C@@H](C#N)[C@]4(C3)C(=O)Nc3ccccc34)N2C(=O)[C@@H](NC(=O)c2cc3cc(C(F)(F)P(=O)(O)O)ccc3s2)C1` (single isomer, unassigned) [Compound 12, ((2-(((5S,8S,10aR)-3-acetyl-8-((3S,4′S or 3R,4′R)-4′-cyano-2-oxospiro[indoline-3,3′-pyrrolidine]-1′-carbonyl)-6-oxodecahydropyrrolo[1,2-a][1,5]diazocin-5-yl)carbamoyl)benzo[b]thiophen-5-yl)difluoromethyl)phosphonic acid] are no more than 300 nM and no more than 100 nM.
